In patent publication EP4559908A1, “HETEROARYL DERIVATIVE COMPOUND AND USE THEREOF” (S2CBio Inc., priority 2022, dated 2024):

Biological target: T1, human ANO6 (variant 5) (Homo sapiens, UniProt Q4KMQ2)
T1 construct: expressed in transfected cells; host or cells: Fischer rat thyroid (FRT) cells
T1 sequence (Q4KMQ2 1-931 isoform Q4KMQ2-2): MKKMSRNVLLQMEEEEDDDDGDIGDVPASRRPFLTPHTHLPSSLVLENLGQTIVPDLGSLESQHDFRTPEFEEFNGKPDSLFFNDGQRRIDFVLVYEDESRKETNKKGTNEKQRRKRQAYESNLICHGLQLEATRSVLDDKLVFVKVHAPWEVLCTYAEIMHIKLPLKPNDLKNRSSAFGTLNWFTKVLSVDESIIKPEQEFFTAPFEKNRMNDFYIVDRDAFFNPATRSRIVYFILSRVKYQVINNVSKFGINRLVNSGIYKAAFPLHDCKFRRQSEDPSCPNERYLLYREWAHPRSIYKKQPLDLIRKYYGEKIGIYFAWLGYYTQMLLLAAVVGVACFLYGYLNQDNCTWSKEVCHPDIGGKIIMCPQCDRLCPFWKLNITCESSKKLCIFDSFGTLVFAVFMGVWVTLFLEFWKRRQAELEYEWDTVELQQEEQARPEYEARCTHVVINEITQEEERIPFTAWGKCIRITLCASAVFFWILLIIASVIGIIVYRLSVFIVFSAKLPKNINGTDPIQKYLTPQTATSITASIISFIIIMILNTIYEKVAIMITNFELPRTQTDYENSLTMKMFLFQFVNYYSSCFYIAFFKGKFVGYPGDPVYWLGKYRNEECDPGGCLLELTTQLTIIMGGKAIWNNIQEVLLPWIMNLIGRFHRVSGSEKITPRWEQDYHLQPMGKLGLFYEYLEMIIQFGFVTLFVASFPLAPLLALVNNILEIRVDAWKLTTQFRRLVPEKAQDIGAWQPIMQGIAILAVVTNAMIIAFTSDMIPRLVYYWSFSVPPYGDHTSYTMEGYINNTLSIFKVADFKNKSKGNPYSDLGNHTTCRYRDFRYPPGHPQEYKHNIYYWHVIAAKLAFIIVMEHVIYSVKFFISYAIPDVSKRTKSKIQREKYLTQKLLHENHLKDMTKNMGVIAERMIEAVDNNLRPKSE
Assay: Lact C2 assay (measuring phosphatidylserine externalization scramblase function)
Format: cell-based
Conditions: FRT cells expressing human ANO6 (variant 5), ionomycin 10 µM, Lact-C2-GFP fluorescence, average of three tests; for inhibition at 0.05 µM / inhibition at 1 µM / inhibition at 0.1 µM: FRT; for inhibition at 0.05 µM: read-out: % Inhibition 50 nM; for inhibition at 1 µM: compound 1 µM, read-out: % Inhibition 1 µM
Experimental: Ionomycin (Alomonelab, cat. # I-700), DAPI (Sigma- Aldrich, cat. # D8417), paraformaldehyde (Biosesang, cat. #P2031), Lionheart FX automated fluorescence microscope (BioTek), Gen5™ software program (BioTek), and Image J analysis software program.
After the incubation, the cells were treated with compounds dissolved in DMSO to 1% v/v in each well at each concentration (50 nM, 100 nM, and 1 µM) and reacted for 10 minutes. Thereafter, each well was treated with ionomycin to a final concentration of 10 µM, allowed to react for 10 minutes, and then washed with 200 µL PBS. After washing, each well was treated with 50 µL of Lactadherin-C2 (Lact-C2)-GFP mixed in DMEM medium to a final concentration of 500 nM to stain phosphatidylserine, and cultured at 37°C for 10 minutes. After completion of the reaction, the cells were washed with 200 µL PBS, and fixed with 4% paraformaldehyde for 5 minutes at room temperature. For morphological analysis, DAPI solution was added, and the cells were incubated for 15 minutes, followed by washing with PBS. The fluorescence intensity of Lact-C2-GFP bound to phosphatidylserine on the cell surface was measured using an automated fluorescence microscope. For quantitative analysis of the fluorescence intensity of Lact-C2-GFP, BioTek Gen5™ software and Image J analysis software programs were used.
Phosphatidylserine externalization inhibitory activity (%) by the compound was calculated through the following analysis method. Specifically, the background fluorescence value was subtracted from the measured Lact-C2-GFP fluorescence value, and the fluorescence value of the ionomycin non-treatment group and the ionomycin-treatment group in the same row where each test group was located in a 96-well microplate were calculated. In order to calculate the inhibitory activity (%) by the compound, the relative inhibitory activity was calculated by setting the compound and ionomycin non-treatment group to 100% inhibitory activity and the ionomycin alone treatment group to 0% inhibitory activity.

| Compound | inhibition at 0.05 µM (compound 50 nM) | inhibition at 1 µM | inhibition at 0.1 µM (compound 100 nM) | % Inhibition 50 nM (compound 50 nM) | % Inhibition 100 nM (compound 100 nM) |
| --- | --- | --- | --- | --- | --- |
| c1cc(Nc2ccc(-c3cscn3)cc2)cc(-c2nc3ccccc3[nH]2)c1 [Example 166, 3-(1H-benzo[d]imidazol-2-yl)-N-(4-thiazol-4-ylphenyl)aniline] | > 60% | > 60% | – | – | – |
| Fc1cccc2nc(-c3cccc(Nc4ncc(-c5cccnn5)cn4)c3)[nH]c12 [Example 290, N-(3-(7-fluoro-1H-benzo[d]imidazol-2-yl)phenyl)-5-(pyridazin-3-yl)pyrimidin-2-amine] | – | 30 to 60% | – | – | – |
| CC(C)OC(=O)c1ccc2nc(-c3cccc(Nc4ccc(-c5cccnn5)cc4)c3)[nH]c2c1 [Example 111, isopropyl 2-(3-((4-(pyridazin-3-yl)phenyl)amino)phenyl)-1H-benzo[d]imidazole-6-carboxylate] | 30 to 60% | > 60% | – | – | – |
| c1cc(Nc2ccc(-c3ccncn3)cc2)cc(-c2nc3ccccc3[nH]2)c1 [Example 22, N-[3-(1H-benzo[d]imidazol-2-yl)phenyl]-4-(pyrimidin-4-yl)aniline] | > 60% | > 60% | > 60% | – | – |
| c1cc(Nc2ncc(-c3ncco3)cn2)cc(-c2nc3ccccc3[nH]2)c1 [Example 171, N-[3-(1H-benzo[d]imidazol-2-yl)phenyl]-5-oxazol-2-yl-pyrimidin-2-amine] | – | 30 to 60% | – | – | – |
| FC(F)(F)c1ccc2nc(-c3cccc(Nc4ccc(-c5ncccn5)cc4)c3)[nH]c2c1 [Example 27, N-[4-(pyrimidin-2-yl)phenyl]-3-[6-(trifluoromethyl)-1H-benzo[d]imidazol-2-yl]aniline] | > 60% | > 60% | > 60% | – | – |
| Fc1cc2nc(-c3cccc(Nc4cnc(-c5ccncn5)cn4)c3)[nH]c2cc1F [Example 297, N-(3-(5,6-difluoro-1H-benzo[d]imidazol-2-yl)phenyl)-5-(pyrimidin-4-yl)pyrazin-2-amine] | > 60% | > 60% | – | – | – |
| c1cc(Nc2ncc(-c3cccnn3)cn2)cc(-c2nc3ccccc3[nH]2)c1 [Example 53, N-[3-(1H-benzo[d]imidazol-2-yl)phenyl]-5-(pyridazin-3-yl)pyrimidin-2-amine] | 30 to 60% | – | 30 to 60% | – | – |
| Clc1cc2[nH]c(-c3cccc(Nc4ncc(-c5cscn5)cn4)c3)nc2cn1 [Example 303, N-(3-(6-chloro-1H-imidazo[4,5-c]pyridin-2-yl)phenyl)-5-(thiazol-4-yl)pyrimidin-2-amine] | – | > 60% | – | – | – |
| FC(F)(F)c1cc2[nH]c(-c3cccc(Nc4ccc(-c5cccnn5)cn4)c3)nc2cn1 [Example 254, 5-(pyridazin-3-yl)-N-(3-(6-(trifluoromethyl)-1H-imidazo[4,5-c]pyridin-2-yl)phenyl)pyridin-2-amine] | > 60% | > 60% | – | – | – |
| Fc1cc2[nH]c(-c3cccc(Nc4ccc(-c5cccnn5)cc4)c3)nc2cc1Cl [Example 102, 3-(5-chloro-6-fluoro-1H-benzo[d]imidazol-2-yl)-N-(4-pyridazin-3-ylphenyl)aniline] | > 60% | > 60% | – | – | – |
| FC(F)(F)c1cc2[nH]c(-c3cccc(Nc4ccc(-c5ccncn5)cn4)c3)nc2cn1 [Example 89, 5-pyrimidin-4-yl-N-[3-[6-(trifluoromethyl)-1H-imidazo[4,5-c]pyridin-2-yl]phenyl]pyridin-2-amine] | 30 to 60% | > 60% | – | – | – |
| FC(F)(F)c1cc2[nH]c(-c3cccc(Nc4ccc(-c5ccncn5)cc4)c3)nc2cn1 [Example 86, N-(4-pyrimidin-4-ylphenyl)-3-[6-(trifluoromethyl)-1H-imidazo[4,5-c]pyridin-2-yl]aniline] | – | > 60% | – | – | – |
| Fc1ccc2nc(-c3cccc(Nc4ncc(-c5cccnn5)cn4)c3)[nH]c2c1 [Example 55, N-(3-(6-fluoro-1H-benzo[d]imidazol-2-yl)phenyl)-5-(pyridazin-3-yl)pyrimidin-2-amine] | – | – | – | A (> 60% inhibition) | A (> 60% inhibition) |
| Fc1cc(Nc2cccc(-c3nc4ccccc4[nH]3)c2)ccc1-c1cccnn1 [Example 270, N-(3-(1H-benzo[d]imidazol-2-yl)phenyl)-3-fluoro-4-(pyridazin-3-yl)aniline] | > 60% | – | – | – | – |
| Fc1ccc2nc(-c3cccc(Nc4ncc(-c5ccccn5)cn4)c3)[nH]c2c1 [Example 45, N-[3-(6-fluoro-1H-benzo[d]imidazol-2-yl)phenyl]-5-(pyridin-2-yl)pyrimidin-2-amine] | > 60% | – | > 60% | – | – |
| Fc1ccc2nc(-c3cccc(Nc4ccc(-c5ccccn5)cc4)c3)[nH]c2c1 [Example 92, 3-(6-fluoro-1H-benzo[d]imidazol-2-yl)-N-[4-(2-pyridyl)phenyl]aniline] | > 60% | > 60% | – | – | – |
| Fc1cccc(-c2cnc(Nc3cccc(-c4nc5ccccc5[nH]4)c3)nc2)n1 [Example 259, N-(3-(1H-benzo[d]imidazol-2-yl)phenyl)-5-(6-fluoropyridin-2-yl) pyrimidin-2-amine] | 30 to 60% | > 60% | – | – | – |
| c1ccc(-c2cnc(Nc3cccc(-c4nc5ccccc5[nH]4)c3)nn2)cc1 [Example 271, N-(3-(1H-benzo[d]imidazol-2-yl)phenyl)-6-phenyl-1,2,4-triazin-3-amine] | – | 30 to 60% | – | – | – |
| c1ccc(CNc2ccc3nc(-c4cccc(Nc5ccc(-c6cccnn6)cc5)c4)[nH]c3c2)cc1 [Example 229, N-benzyl-2-(3-((4-(pyridazin-3-yl)phenyl)amino)phenyl)-1H-benzo[d]imidazol-6-amine] | – | > 60% | – | – | – |
| Clc1cc2[nH]c(-c3cccc(Nc4cnc(-c5ccccn5)cn4)c3)nc2cn1 [Example 301, N-(3-(6-chloro-1H-imidazo[4,5-c]pyridin-2-yl)phenyl)-5-(pyridin-2-yl)pyrazin-2-amine] | – | > 60% | – | – | – |
| Clc1cc2[nH]c(-c3cccc(Nc4ncc(-c5ccccn5)cn4)c3)nc2cn1 [Example 64, N-(3-(6-chloro-1H-imidazolo[4,5-c]pyridin-2-yl)phenyl)-5-(pyridin-2-yl)pyrimidin-2-amine] | 30 to 60% | – | 30 to 60% | – | – |
| FC(F)(F)c1ccc2nc(-c3cccc(Nc4ccc(-c5ccccn5)cc4)c3)[nH]c2c1 [Example 98, N-[4-(2-pyridyl)phenyl]-3-[6-(trifluoromethyl)-1H-benzo[d]imidazol-2-yl]aniline] | > 60% | > 60% | – | – | – |
| FC(F)(F)c1ccc2nc(-c3cccc(Nc4ncc(-c5cccnn5)cn4)c3)[nH]c2c1 [Example 52, 5-(pyridazin-3-yl)-N-(3-(6-(trifluoromethyl)-1H-benzo[d]imidazol-2-yl)phenyl)pyrimidin-2-amine] | > 60% | – | > 60% | – | – |
| FC(F)(F)c1ccc2nc(-c3cccc(Nc4ccc(-c5ncccn5)cn4)c3)[nH]c2c1 [Example 100, 5-pyrimidin-2-yl-N-[3-[6-(trifluoromethyl)-1H-benzo[d]imidazol-2-yl]phenyl]pyridin-2-amine] | > 60% | > 60% | – | – | – |
